The text below walks through data of publication PMC6138237, “Machine intelligence decrypts β-lapachone as an allosteric 5-lipoxygenase inhibitor” (Chemical Science, 2018).

Read-outs that look alike come from different tables or passages of the source.

Format in all cases: biochemical
One assay deals with EphA2 (Homo sapiens, UniProt P29317). The assay can be described thus: ExpresS Diversity Kinase Profile, Cerep (LANCE): EphA2. For orientation: In TR-FRET formats the signal depends on donor and acceptor labels being close together.
The target in another assay is T1, CHK1 (Homo sapiens, UniProt O14757).
T1 sequence (O14757 1-476): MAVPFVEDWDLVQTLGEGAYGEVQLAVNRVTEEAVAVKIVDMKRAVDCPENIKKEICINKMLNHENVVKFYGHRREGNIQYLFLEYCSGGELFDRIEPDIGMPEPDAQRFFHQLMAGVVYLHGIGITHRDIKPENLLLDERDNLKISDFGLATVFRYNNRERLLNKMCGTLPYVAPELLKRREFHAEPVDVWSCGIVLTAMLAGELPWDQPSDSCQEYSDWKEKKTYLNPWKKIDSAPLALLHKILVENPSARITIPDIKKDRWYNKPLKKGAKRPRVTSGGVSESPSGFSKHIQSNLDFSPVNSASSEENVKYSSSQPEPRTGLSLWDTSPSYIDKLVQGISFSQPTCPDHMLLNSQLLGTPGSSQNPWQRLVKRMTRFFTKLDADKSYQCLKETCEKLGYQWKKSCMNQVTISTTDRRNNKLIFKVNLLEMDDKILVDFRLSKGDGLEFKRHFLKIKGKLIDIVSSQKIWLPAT
In words: ExpresS Diversity Kinase Profile, Cerep (LANCE): CHK1.

For a further assay, the target named is RAF-1 (Homo sapiens, UniProt P04049). In words: ExpresS Diversity Kinase Profile, Cerep (LANCE): RAF-1. The settings on record: for inhibition at 150 µM: RAF-1.
Another assay concerns the target MAP4K4 (Homo sapiens, UniProt O95819). The assay can be described thus: ExpresS Diversity Kinase Profile, Cerep (LANCE): MAP4K4.
A further assay deals with PAK2 (Homo sapiens, UniProt Q13177). In words: ExpresS Diversity Kinase Profile, Cerep (LANCE): PAK2.
The next assay has as its target T2, NEK2 (Homo sapiens, UniProt P51955).
T2 sequence (P51955 1-445): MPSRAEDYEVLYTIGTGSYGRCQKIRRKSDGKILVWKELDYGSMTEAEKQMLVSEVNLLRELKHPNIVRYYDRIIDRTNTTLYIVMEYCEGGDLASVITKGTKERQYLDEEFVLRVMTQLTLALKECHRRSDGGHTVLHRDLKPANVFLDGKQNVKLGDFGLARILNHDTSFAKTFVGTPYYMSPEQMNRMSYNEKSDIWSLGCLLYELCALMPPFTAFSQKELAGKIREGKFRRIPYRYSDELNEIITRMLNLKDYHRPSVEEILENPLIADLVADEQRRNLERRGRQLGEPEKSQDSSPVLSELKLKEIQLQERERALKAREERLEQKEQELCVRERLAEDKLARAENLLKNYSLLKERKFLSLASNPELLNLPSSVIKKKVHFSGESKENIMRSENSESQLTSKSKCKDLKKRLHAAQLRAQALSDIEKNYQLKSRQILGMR
The assay can be described thus: ExpresS Diversity Kinase Profile, Cerep (LANCE): NEK2.

The target in the next assay is VEGFR2 (Homo sapiens, UniProt P35968). In words: ExpresS Diversity Kinase Profile, Cerep (LANCE): VEGFR2.
A further assay has as its target c-Met (Homo sapiens, UniProt P08581). The assay can be described thus: ExpresS Diversity Kinase Profile, Cerep (LANCE): c-Met.
The target of a further assay is Akt1/PKBα (Homo sapiens, UniProt P31749). In words: ExpresS Diversity Kinase Profile, Cerep (LANCE): Akt1/PKBα. Conditions: for inhibition at 150 µM: Akt1/PKBα, Flag: Interference.
Another assay concerns the target T3, AurA (Homo sapiens, UniProt O14965).
T3 sequence (O14965 1-403): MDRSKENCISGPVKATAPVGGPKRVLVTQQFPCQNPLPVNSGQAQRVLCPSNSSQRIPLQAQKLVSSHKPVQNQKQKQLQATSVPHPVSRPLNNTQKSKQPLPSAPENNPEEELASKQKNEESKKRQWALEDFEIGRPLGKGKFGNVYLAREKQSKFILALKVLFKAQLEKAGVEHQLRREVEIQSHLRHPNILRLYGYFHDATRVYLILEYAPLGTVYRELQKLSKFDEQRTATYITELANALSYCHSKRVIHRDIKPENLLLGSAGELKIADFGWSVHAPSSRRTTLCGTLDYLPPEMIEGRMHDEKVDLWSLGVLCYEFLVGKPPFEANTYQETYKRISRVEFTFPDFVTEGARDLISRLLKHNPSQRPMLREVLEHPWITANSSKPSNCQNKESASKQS
In words: ExpresS Diversity Kinase Profile, Cerep (LANCE): AurA.

[1] abbreviates: Flag: Interference, read-out: % Inhibition of control values, 1st measurement.
Where [2] appears, read: Flag: Interference, read-out: % Inhibition of control values, 2nd measurement.
Where [3] appears, read: n = 2, Flag: Interference, read-out: % Inhibition of control values, Mean.
Setting [4] is: n = 2, read-out: % Inhibition of control values, Mean.
Where [5] appears, read: read-out: % Inhibition of control values, 1st measurement.
[6] abbreviates: read-out: % Inhibition of control values, 2nd measurement.

Chain of PAK2 (Q13177 whole entry): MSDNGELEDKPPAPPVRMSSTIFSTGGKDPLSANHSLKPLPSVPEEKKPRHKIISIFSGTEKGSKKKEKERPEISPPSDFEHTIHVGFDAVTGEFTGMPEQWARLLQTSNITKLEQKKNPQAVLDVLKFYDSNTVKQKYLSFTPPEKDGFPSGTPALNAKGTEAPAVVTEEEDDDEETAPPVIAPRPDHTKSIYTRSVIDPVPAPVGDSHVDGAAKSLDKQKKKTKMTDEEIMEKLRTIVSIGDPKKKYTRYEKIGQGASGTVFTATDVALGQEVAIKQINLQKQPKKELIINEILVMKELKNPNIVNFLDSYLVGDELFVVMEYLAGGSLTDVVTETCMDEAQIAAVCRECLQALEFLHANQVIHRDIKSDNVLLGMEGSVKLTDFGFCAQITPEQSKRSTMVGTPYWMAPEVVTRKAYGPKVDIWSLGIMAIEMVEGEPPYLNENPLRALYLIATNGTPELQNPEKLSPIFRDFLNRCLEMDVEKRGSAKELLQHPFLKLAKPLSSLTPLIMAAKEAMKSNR
Chain of c-Met (P08581 25-1390): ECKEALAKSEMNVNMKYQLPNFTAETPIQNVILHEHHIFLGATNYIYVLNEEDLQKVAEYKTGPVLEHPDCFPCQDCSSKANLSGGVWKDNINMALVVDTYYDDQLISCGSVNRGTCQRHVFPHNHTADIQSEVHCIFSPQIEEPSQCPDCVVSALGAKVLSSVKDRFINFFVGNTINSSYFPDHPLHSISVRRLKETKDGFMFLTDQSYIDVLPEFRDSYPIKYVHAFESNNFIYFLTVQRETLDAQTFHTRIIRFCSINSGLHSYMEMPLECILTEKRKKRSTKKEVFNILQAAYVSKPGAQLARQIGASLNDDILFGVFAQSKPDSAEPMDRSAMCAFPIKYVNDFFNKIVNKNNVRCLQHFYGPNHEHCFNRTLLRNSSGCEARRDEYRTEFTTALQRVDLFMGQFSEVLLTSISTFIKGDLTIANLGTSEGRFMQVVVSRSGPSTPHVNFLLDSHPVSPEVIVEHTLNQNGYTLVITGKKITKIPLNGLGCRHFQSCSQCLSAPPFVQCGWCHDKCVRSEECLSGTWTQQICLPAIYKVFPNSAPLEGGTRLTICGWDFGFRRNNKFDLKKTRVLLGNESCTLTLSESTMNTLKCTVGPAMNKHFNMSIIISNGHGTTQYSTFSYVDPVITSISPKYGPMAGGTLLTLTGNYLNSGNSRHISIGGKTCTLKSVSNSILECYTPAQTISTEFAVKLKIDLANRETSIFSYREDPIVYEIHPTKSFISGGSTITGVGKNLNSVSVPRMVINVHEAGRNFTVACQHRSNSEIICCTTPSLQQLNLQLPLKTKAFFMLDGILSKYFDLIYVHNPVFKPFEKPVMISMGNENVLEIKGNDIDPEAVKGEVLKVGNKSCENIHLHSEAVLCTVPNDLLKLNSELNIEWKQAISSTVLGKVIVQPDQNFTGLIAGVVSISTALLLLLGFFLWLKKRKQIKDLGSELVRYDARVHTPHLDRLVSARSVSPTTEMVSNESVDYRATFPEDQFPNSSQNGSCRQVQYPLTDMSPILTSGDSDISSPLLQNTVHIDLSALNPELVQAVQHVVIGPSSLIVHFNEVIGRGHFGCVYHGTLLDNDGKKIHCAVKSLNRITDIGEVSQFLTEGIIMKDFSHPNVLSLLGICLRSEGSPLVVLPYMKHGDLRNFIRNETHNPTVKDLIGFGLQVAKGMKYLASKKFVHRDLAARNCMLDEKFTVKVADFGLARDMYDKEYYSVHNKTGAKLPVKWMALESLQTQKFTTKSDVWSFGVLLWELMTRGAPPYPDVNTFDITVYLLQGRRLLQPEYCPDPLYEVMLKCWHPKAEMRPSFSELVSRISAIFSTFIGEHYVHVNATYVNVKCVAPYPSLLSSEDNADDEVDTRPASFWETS
Chain of EphA2 (P29317 24-976): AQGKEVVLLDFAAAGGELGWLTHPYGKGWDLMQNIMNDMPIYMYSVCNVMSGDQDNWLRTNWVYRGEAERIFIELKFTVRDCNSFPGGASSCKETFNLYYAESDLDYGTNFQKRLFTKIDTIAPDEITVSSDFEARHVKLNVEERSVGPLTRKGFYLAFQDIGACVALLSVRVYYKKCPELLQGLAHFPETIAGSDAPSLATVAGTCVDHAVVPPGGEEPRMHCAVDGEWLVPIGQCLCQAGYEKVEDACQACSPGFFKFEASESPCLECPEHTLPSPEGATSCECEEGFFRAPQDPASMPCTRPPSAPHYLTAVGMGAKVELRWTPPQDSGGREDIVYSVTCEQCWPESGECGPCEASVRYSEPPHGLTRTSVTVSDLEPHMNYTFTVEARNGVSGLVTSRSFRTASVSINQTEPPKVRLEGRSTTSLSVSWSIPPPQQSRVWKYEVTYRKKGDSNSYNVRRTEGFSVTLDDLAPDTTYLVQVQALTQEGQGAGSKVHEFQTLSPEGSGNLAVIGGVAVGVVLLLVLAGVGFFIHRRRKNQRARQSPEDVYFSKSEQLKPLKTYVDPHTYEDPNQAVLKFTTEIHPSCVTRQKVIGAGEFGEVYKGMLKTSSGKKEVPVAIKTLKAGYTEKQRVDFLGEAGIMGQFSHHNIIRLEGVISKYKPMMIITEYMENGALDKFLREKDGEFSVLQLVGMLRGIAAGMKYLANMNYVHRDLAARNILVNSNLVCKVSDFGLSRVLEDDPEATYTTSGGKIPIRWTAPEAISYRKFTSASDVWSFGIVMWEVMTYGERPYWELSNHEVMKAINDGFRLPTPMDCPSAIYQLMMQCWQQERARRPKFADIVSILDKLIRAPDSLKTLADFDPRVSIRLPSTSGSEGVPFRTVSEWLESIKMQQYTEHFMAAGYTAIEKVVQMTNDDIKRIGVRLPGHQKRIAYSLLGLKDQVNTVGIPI
Chain of MAP4K4 (O95819 whole entry): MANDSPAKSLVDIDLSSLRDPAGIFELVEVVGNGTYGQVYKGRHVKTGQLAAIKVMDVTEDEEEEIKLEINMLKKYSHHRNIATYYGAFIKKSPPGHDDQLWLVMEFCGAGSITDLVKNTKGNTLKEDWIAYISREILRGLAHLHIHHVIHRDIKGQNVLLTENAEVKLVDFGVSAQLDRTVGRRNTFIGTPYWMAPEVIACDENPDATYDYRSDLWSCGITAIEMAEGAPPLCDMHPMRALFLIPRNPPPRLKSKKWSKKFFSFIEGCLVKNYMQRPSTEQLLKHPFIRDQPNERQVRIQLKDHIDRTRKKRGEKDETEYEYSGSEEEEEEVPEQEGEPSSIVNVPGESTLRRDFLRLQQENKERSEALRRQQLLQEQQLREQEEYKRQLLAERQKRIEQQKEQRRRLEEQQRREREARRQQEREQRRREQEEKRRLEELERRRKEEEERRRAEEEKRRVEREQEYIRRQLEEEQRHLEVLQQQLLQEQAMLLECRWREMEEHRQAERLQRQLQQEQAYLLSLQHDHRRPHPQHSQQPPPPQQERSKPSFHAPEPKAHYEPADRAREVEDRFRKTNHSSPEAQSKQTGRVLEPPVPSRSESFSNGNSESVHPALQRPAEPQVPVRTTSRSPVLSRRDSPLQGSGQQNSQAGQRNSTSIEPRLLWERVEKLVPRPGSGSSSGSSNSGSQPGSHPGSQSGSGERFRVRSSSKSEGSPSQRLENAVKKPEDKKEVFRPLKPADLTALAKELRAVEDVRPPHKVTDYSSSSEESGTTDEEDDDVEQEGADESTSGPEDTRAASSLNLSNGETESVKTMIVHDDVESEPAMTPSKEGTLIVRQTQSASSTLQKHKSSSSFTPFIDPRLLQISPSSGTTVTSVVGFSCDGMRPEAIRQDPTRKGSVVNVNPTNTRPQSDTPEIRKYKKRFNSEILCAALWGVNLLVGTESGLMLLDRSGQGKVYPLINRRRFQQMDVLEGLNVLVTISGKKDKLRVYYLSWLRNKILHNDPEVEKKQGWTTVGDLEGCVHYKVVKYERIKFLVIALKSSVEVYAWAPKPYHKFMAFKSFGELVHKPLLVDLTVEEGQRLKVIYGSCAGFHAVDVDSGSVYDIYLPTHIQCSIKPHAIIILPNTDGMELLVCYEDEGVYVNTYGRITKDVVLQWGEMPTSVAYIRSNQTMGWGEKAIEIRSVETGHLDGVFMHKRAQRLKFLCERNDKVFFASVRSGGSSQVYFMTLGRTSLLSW
Chain of Akt1/PKBα (P31749 whole entry): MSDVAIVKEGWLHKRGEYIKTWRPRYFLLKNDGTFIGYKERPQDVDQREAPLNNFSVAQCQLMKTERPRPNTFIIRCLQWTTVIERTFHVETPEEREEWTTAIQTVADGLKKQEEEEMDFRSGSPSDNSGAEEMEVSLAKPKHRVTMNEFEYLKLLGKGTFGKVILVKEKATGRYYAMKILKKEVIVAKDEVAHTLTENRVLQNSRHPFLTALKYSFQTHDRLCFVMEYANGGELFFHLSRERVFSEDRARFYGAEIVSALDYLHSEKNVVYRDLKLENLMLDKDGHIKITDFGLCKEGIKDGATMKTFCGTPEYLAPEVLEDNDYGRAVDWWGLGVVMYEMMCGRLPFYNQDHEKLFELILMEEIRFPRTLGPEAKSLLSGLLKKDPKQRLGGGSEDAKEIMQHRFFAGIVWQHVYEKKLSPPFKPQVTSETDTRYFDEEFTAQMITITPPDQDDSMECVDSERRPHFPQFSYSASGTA

For the compound `CN[C@@H]1C[C@H]2O[C@@](C)([C@@H]1OC)n1c3ccccc3c3c4c(c5c6ccccc6n2c5c31)C(=O)NC4` [Staurosporine, reference compound], the nHill was 1.6 at EphA2 (control); 1.5 at CHK1 (control); 2.4 at RAF-1 (RAF1, control); 2.7 on MAP4K4 (control); greater than 3 at PAK2 (control); 0.9 at NEK2 (control). For the same compound, the nHill on VEGFR2 (control) was 1.2; at c-Met (control) it was 1.8; at Akt1/PKBα (Akt/PKBα, control) it was 0.8; on AurA (control), 2.5.

The inhibition is the change of the read-out against control, counted positive when it falls. Regarding `CC1(C)CCC2=C(O1)c1ccccc1C(=O)C2=O` [β-Lapachone], the inhibition at 150 µM on EphA2 (setting [1]) was determined as 63.7%; on EphA2 (setting [2]), 63.5%; on EphA2 (setting [3]), 63.6%; on CHK1 (setting [1]), 9.4%; on CHK1 (setting [2]), 19.7%; at CHK1 (setting [3]), 14.5%. For the same compound, the inhibition at 150 µM amounted to 57.3% at RAF-1 (setting [4]); 55.4% at RAF-1 (setting [5]); 59.3% on RAF-1 (setting [6]); 48.6% on MAP4K4 (setting [4]); 47.7% on MAP4K4 (setting [5]); 49.5% at MAP4K4 (setting [6]). The inhibition at 150 µM is -34% on PAK2 (setting [1]); 1.5% at PAK2 (setting [2]); -16.2% at PAK2 (setting [3]); 19% on NEK2 (setting [1]); 18.4% on NEK2 (setting [2]); 18.7% at NEK2 (setting [3]). In addition, the inhibition at 150 µM was found to be 82.3% on VEGFR2 (setting [4]); 82.7% at VEGFR2 (setting [5]); 82% at VEGFR2 (setting [6]); 45.3% at c-Met (setting [1]); 50.6% at c-Met (setting [2]); 47.9% on c-Met (setting [3]). The inhibition at 150 µM is 65.8% on Akt1/PKBα (setting [5]); 55% on Akt1/PKBα (setting [6]); 60.4% on Akt1/PKBα (setting [4]); -16.5% on AurA (setting [1]); 0.2% on AurA (setting [2]); -8.1% on AurA (setting [3]).
